Like-named read-outs stand apart in the source and are kept apart here.
What was measured:
[1] = molecular target: IgG; test: IgG SPR binding; conditions: second table, read-out: IgG KD
[2] = molecular target: T1, ASGPR (Homo sapiens, UniProt P07306); test: ASGPR SPR binding; conditions: second table, read-out: ASGPR KD
T1 construct: biotin (biotinylated)
T1 sequence (P07306 1-291): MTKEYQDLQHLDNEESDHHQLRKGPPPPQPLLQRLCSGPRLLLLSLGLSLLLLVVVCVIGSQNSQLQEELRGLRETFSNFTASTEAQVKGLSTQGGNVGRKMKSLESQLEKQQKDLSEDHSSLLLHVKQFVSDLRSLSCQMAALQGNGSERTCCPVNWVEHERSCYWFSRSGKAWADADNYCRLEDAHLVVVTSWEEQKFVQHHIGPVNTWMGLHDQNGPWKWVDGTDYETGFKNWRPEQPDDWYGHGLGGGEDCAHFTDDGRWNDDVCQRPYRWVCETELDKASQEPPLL

[3] = molecular target: T2, ASGPR receptor on HepG2 cells (ternary complex with AF488-labeled antibody) (Homo sapiens, UniProt P07306); test: Ternary complex formation assay (flow cytometry, cell-associated AF488 fluorescence); format: cell-based
T2 construct: host or cells: HepG2
T2 sequence (P07306 1-291): T1 sequence (P07306 1-291)
T2 sequence (P07307 1-311 partner): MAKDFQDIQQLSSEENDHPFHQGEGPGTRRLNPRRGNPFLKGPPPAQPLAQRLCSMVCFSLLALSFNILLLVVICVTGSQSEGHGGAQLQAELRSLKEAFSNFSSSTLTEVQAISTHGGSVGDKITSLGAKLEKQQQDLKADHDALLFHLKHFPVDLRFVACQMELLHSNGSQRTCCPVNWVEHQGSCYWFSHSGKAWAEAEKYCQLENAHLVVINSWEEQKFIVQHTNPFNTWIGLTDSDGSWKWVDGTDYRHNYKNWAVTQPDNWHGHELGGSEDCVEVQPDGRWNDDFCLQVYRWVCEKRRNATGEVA
Description: Human IgG (Sigma-Aldrich, 14506) was covalently labeled with Alexa Fluor 488 using the Alexa Fluor™ 488 Protein Labeling Kit (Thermo Fisher, A10235) following the manufacturer's instructions. HepG2 cells (ATCC, HB-8065) were cultured to about 70% confluence and harvested by trypsinization. Single cell suspensions of HepG2 cells were plated in 96 well plates at 1×10^5 cells/well in cell culture media (DMEM supplemented with 10% FBS) and placed at 4° C. For studies using human IgG, cells were incubated with 100 nM AF488-labeled anti-human IgG and serial dilutions of IgG-based degrader for 1 hour at 4° C. For studies using DNP, cells were incubated with 100 nM AF488-labeled polyclonal rabbit anti-dinitrophenyl (DNP) antibodies (ThermoFisher) and serial dilutions of DNP-based degrader for 1 hour at 4° C. After washing once with ice-cold PBS containing 0.1% BSA and 0.1% sodium azide, cells were resuspended in 150 uL PBS+0.1% BSA and cell-associated AF488 fluorescence was measured by flow cytometry using the iQue® Screener PLUS Flow Cytometer (IntelliCyt). […]

[4] = read-out: TCF EC50, 100 nM AF488-labeled antibody, 1 hour at 4° C., the 25th table, class symbols

Row | Structure (SMILES) | Kd [1] [nM] | Kd [2] [nM] | EC50 [3, 4] [nM] | EC50 ([3]; 100 nM AF488-labeled antibody, 1 hour at 4° C., the 25th table, class symbols, read-out: TCF EC50) [nM] | EC50 ([3]; read-out: TCF EC50, 100 nM AF488-labeled antibody, 1 hour at 4° C., the 25th table, numeric bounds, nM from footnote) [nM]
1 | CC(C)CC1NC(=O)C(Cc2cnc[nH]2)NC(=O)C(Cc2c[nH]c3ccccc23)NC(=O)C(C)NC(=O)C2CSSCC(NC(=O)C(Cc3c[nH]c4ccccc34)NC(=O)C(C(C)C)NC(=O)C(CC(C)C)NC(=O)C(CCC(=O)O)NC(=O)CNC1=O)C(=O)NC(C(C)O)C(=O)N1CCCC1C(=O)N1CC(NC(=O)COc3ccc(CC(=O)NCC4OCC(Nc5cncc(C(F)(F)F)n5)C(O)C4O)cc3)CC1C(=O)NC(CC(=O)O)C(=O)N2 (stereo not drawn) [compound 37] | < 100 | < 100 | < 100 |  | 
2 | CC(C)CC1NC(=O)C(Cc2cnc[nH]2)NC(=O)C(Cc2c[nH]c3ccccc23)NC(=O)C(C)NC(=O)C2CSSCC(NC(=O)C(Cc3c[nH]c4ccccc34)NC(=O)C(C(C)C)NC(=O)C(CC(C)C)NC(=O)C(CCC(=O)O)NC(=O)CNC1=O)C(=O)NC(C(C)O)C(=O)N1CCCC1C(=O)N1CC(NC(=O)CC(=O)NCC3OCC(Nc4cncc(C(F)(F)F)n4)C(O)C3O)CC1C(=O)NC(CC(=O)O)C(=O)N2 (stereo not drawn) [compound 38] | < 100 | < 100 | < 100 |  | 
3 | CC(C)CC1NC(=O)C(Cc2cnc[nH]2)NC(=O)C(Cc2c[nH]c3ccccc23)NC(=O)C(C)NC(=O)C2CSSCC(NC(=O)C(Cc3c[nH]c4ccccc34)NC(=O)C(C(C)C)NC(=O)C(CC(C)C)NC(=O)C(CCC(=O)O)NC(=O)CNC1=O)C(=O)NC(C(C)O)C(=O)N1CCCC1C(=O)N1CC(NC(=O)CCN3CCN(CC(=O)NCC4OCC(Nc5cncc(C(F)(F)F)n5)C(O)C4O)CC3)CC1C(=O)NC(CC(=O)O)C(=O)N2 (stereo not drawn) [compound 39] | < 100 | < 100 | < 100 |  | 
4 | CNC(=O)CCC1NC(=O)CNC(=O)C(CC(C)C)NC(=O)C(Cc2cnc[nH]2)NC(=O)C(Cc2c[nH]c3ccccc23)NC(=O)C(C)NC(=O)C2CSSCC(NC(=O)C(Cc3c[nH]c4ccccc34)NC(=O)C(C(C)C)NC(=O)C(CC(C)C)NC1=O)C(=O)NC(C(C)O)C(=O)N1CCCC1C(=O)N1CC(N)CC1C(=O)NC(CC(=O)O)C(=O)N2 (stereo not drawn) [compound 64] |  | < 100 |  |  | 
5 | CC(C)CC1NC(=O)C(Cc2cnc[nH]2)NC(=O)C(Cc2c[nH]c3ccccc23)NC(=O)C(C)NC(=O)C2CSSCC(NC(=O)C(Cc3c[nH]c4ccccc34)NC(=O)C(C(C)C)NC(=O)C(CC(C)C)NC(=O)C(CCC(=O)O)NC(=O)CNC1=O)C(=O)NC(C(C)O)C(=O)N1CCCC1C(=O)N1CC(NC(=O)CCCc3cn(CC(=O)NC(COCCC(=O)NCCOCCOCCOCCOCC4OCC(Nc5cncc(C(F)(F)F)n5)C(O)C4O)COCCC(=O)NCCOCCOCCOCCOCC4OCC(Nc5cncc(C(F)(F)F)n5)C(O)C4O)nn3)CC1C(=O)NC(CC(=O)O)C(=O)N2 (stereo not drawn) [compound 77] | < 100 |  |  | < 100 | 
6 | COC1OC(Cn2cc(CCCC(=O)NC3CC4C(=O)NC(CC(=O)O)C(=O)NC5CSSCC(NC(=O)C(Cc6c[nH]c7ccccc67)NC(=O)C(C(C)C)NC(=O)C(CC(C)C)NC(=O)C(CCC(=O)O)NC(=O)CNC(=O)C(CC(C)C)NC(=O)C(Cc6cnc[nH]6)NC(=O)C(Cc6c[nH]c7ccccc67)NC(=O)C(C)NC5=O)C(=O)NC(C(C)O)C(=O)N5CCCC5C(=O)N4C3)nn2)C(O)C(O)C1NC(C)=O (stereo not drawn) [compound 79] | < 100 | > 1000 |  |  | 
7 | CC(C)CC1NC(=O)C(Cc2cnc[nH]2)NC(=O)C(Cc2c[nH]c3ccccc23)NC(=O)C(C)NC(=O)C2CSSCC(NC(=O)C(Cc3c[nH]c4ccccc34)NC(=O)C(C(C)C)NC(=O)C(CC(C)C)NC(=O)C(CCC(=O)O)NC(=O)CNC1=O)C(=O)NC(C(C)O)C(=O)N1CCCC1C(=O)N1CC(NC(=O)c3ccc(N4CCC(CN5CCN(CC6OCC(Nc7cncc(C(F)(F)F)n7)C(O)C6O)CC5)CC4)cc3)CC1C(=O)NC(CC(=O)O)C(=O)N2 (stereo not drawn) [compound 98] | < 100 |  | < 100 |  | 
8 | CC(C)CC1NC(=O)C(Cc2cnc[nH]2)NC(=O)C(Cc2c[nH]c3ccccc23)NC(=O)C(C)NC(=O)C2CSSCC(NC(=O)C(Cc3c[nH]c4ccccc34)NC(=O)C(C(C)C)NC(=O)C(CC(C)C)NC(=O)C(CCC(=O)O)NC(=O)CNC1=O)C(=O)NC(C(C)O)C(=O)N1CCCC1C(=O)N1CC(NC(=O)CCCc3cn(CC45COC(O4)C(NC(=O)C(F)(F)F)C(O)C5O)nn3)CC1C(=O)NC(CC(=O)O)C(=O)N2 (stereo not drawn) [compound 104] | < 100 |  |  |  | > 10000
